Paper PMC10027881 (Scientific Reports, 2023)
Where two headings read alike, the source gives them in different places.

Columns and labels:
[1] = cited from earlier work
GST [2] = experiment: GST expression by western blotting; type: cell-based, human
Procedure: (§1) Caco2 and hEL cells were cultured in a 100 mm^2 cell culture dish with MEM containing 10% FBS at 37 °C in a humidified atmosphere of 5% CO2. To determine the effects of the treatment conditions, hEL cells were incubated with various concentrations of B(a)P and G-Rg3 in MEM for 48 h. The cells were subjected to further analysis or harvested to prepare cell-free extracts.
(§2) hEL cells were washed using ice-cold PBS and then lysed using radioimmunoprecipitation assay buffer containing a protease inhibitor and phosphatase inhibitors. After protein quantification using a total protein assay kit, 30 µg of protein from each sample was separated by 12% SDS‒PAGE and transferred electrophoretically onto the PVDF membrane. The membranes were blocked using 5% skim milk and then incubated with primary antibodies overnight at 4 °C. After incubation with horseradish peroxidase-conjugated secondary antibody, enhanced chemiluminescent reagent was added to visualize the binding signals. The intensity of each protein band was quantified using ImageJ software.

GST [3] = experiment: GST activity assay kit; type: cell-based, human
Procedure: hEL cells were seeded in 96-well plates at a density of 1 × 10^4 cells per well and treated with 10 µM B(a)P in the absence or presence of 10 µM G-Rg3 for 48 h. GST activity was measured using a commercial GST activity assay kit according to the manufacturer’s protocols. The relative activation of GST was measured by using a microplate reader for absorbance at 450 nm.

Nrf2 = Nrf2 expression by western blotting; type: cell-based, human
Procedure: as §1, §2

[4] = Side effects in the model mice: body weight, plasma ALT and Cr; type: in vivo, A/J mice; details: G-Rg3 treatment groups vs control group
Procedure: (§3) All experiments were performed in accordance with relevant guidelines and regulations, and the study was conducted in accordance with Animal Research: Reporting of in vivo Experiments (ARRIVE) guidelines. […] One week later, the mice were randomly divided into control and different treatment groups with 15 mice per group, and treatment was performed once every day via oral gavage. Following 20 weeks of treatment, the animals were sacrificed by CO2 asphyxiation. The lungs were collected and fixed for 24 h. Quantification of the surface tumor count and individual tumor size on each lung was performed under a dissecting microscope. The tumor volume (V) estimation was calculated using the following expression: V (mm^3) = 4/3πr^3, where r is the tumor diameter. The net sum of all the volumes of tumors in a mouse lung was the total tumor volume, with the mean total tumor volume per group represented the tumor load. Whole blood and intestine samples were collected and stored at − 80 °C for UPLC‒MS/MS assays. Serum was collected and analyzed for alanine transaminase (ALT) and serum creatinine (Cr) levels by an automatic biochemical analyzer to evaluate liver and kidney function.

[5] = system: lung tumors induced by B(a)P in A/J mice; experiment: B(a)P-induced lung tumorigenesis in A/J mice, tumor load; type: in vivo; details: G-Rg3 study, 20-weeks treatment; control 1.63 ± 0.40
Procedure: The mice were sacrificed by CO2 asphyxiation after the 20th week of red ginseng treatment.
as §3

[6] = UPLC-MS/MS levels of ginsenosides in blood/plasma and intestine after 20-weeks treatment; type: in vivo, A/J mice; details: for concentration at 20 weeks: A/J, mouse
Procedure: All experiments were approved by the laboratory animal ethics committee of Tongji Medical College, Huazhong University of Science and Technology (approval no. 2019; file no. 4587TH). All experiments were performed in accordance with relevant guidelines and regulations, and the study was conducted in accordance with Animal Research: Reporting of in vivo Experiments (ARRIVE) guidelines. Eight-week-old A/J mice were given an initial intraperitoneal injection of B(a)P in tricaprylin (100 mg/kg in 0.2 mL). One week later, the mice were randomly divided into control and different treatment groups with 15 mice per group, and treatment was performed once every day via oral gavage. Following 20 weeks of treatment, the animals were sacrificed by CO2 asphyxiation. The lungs were collected and fixed for 24 h. Quantification of the surface tumor count and individual tumor size on each lung was performed under a dissecting microscope. The tumor volume (V) estimation was calculated using the following expression: V (mm^3) = 4/3πr^3, where r is the tumor diameter. The net sum of all the volumes of tumors in a mouse lung was the total tumor volume, with the mean total tumor volume per group represented the tumor load. Whole blood and intestine samples were collected and stored at − 80 °C for UPLC‒MS/MS assays. Serum was collected and analyzed for alanine transaminase (ALT) and serum creatinine (Cr) levels by an automatic biochemical analyzer to evaluate liver and kidney function.
As described above, the collected samples were retrieved from cold storage, thawed, weighed, and placed in a test tube. To this, 0.5 µM phloridzin (internal standard) in 0.8 mL of methanol solution was added. Then, the tissue was homogenized using a Tissue-Tearor and the homogenate was subsequently transferred into a 1.5 mL microcentrifuge tube. The mixture was centrifuged for 15 min at 15,500 rpm. Following the removal of […] of the supernatant, nitrogen–based drying was performed. Two hundred microliters of methanol was used for reconstitution. Blood was collected and processed on the same lines and used as a reference for all measurements.

Caco-2 monolayer = experiment: Transcellular transport across the Caco-2 monolayer; type: in vitro ADME; details: for Pb-a compared with Pa-b: no verapamil
Procedure: This assay was performed in accordance with an earlier study.
The cells were subjected to washing using HBSS and preincubation at 37 °C following 3 weeks of culture. […] Collection of 100 µL medium was performed at the indicated times (0, 15, 30, 45, 60, 90, and 120 min), and 100 µL HBSS was added to replenish this volume. These samples were stored at […] until UPLC‒MS/MS assays. The expression Papp = dQ/(dT × A × C0) was utilized to quantify the apparent unidirectional permeability for both the apical and basolateral sides and vice versa (Pa-b and Pb-a, respectively); dQ/dT represents the concentration change, A (0.6 cm^2) represents the monolayer surface area, and C0 represents the initial donor concentration. The efflux ratio was calculated as Pb-a/Pa-b, which represents the degree of efflux transport of the study drug.

hEL cells = experiment: Cell viability (MTS) assay; type: cell-based, human; details: compound alone, 0-20 µM, 48 h
Procedure: Caco2 and hEL cells were cultured in a 100 mm^2 cell culture dish with MEM containing 10% FBS at 37 °C in a humidified atmosphere of 5% CO2. […] The cells were subjected to further analysis or harvested to prepare cell-free extracts.
A commercially available MTS assay kit was used, and cells were subjected to the standard protocol followed by measurement at 490 nm wavelength with a microplate reader.

[7] = system: BPDE-DNA adducts in hEL cells; experiment: BPDE-DNA adduct formation (ELISA kit); type: cell-based, human; details: for BPDE-DNA adduct level: 10 µM B(a)P cotreatment with 10 µM G-Rg3, 48 h; for BPDE-DNA adducts: B(a)P and G-Rg3 cotreatment
Procedure: After treatment for 48 h, DNA was extracted from hEL cells using the QIAamp DNA Mini Kit according to the manufacturer’s protocol. BPDE-DNA adduct formation was detected using the BPDE-DNA adduct ELISA kit. The relative BPDE-DNA adduct levels were measured using a microplate reader for absorbance at 450 nm.

Caco-2 cells = details: cited from earlier work
[8] = system: rat pulmonary epithelial cells; design: method as in PMID 17357179; details: in the presence of verapamil; cited from earlier work
[9] = verapamil 50 or 100 µM vs no verapamil
[10] = 10 µM B(a)P cotreatment with 10 µM G-Rg3
[11] = 10 µM B(a)P cotreatment with 10 µM G-Rg3, 48 h

Which bioavailability ([1]; initial value, without cyclosporine A) does the source give for `CC(C)=CCC[C@](C)(O)[C@H]1CC[C@]2(C)[C@@H]1[C@H](O)C[C@@H]1[C@@]3(C)CC[C@H](O[C@@H]4O[C@H](CO)[C@@H](O)[C@H](O)[C@H]4O)C(C)(C)[C@@H]3CC[C@]12C` [ginsenoside Rh2] here?
Its bioavailability is 1%.

What about the bioavailability ([1]; with cyclosporine A treatment) of the same compound?
Its bioavailability is “more than 30%”.

For `c1ccc2c(c1)cc1ccc3cccc4ccc2c1c34` [B(a)P, benzo(a)pyrene, reference compound], which GST expression (GST [2]; 10 µM B(a)P alone, G-Rg3r groups) is on record?
Its GST expression is 59.7 ± 8.2%.

What about the GST expression (GST [2]; 10 µM B(a)P alone, G-Rg3s groups) of the same compound?
The GST expression was 39 ± 4.5%.

And the GST activity (GST [3]; 10 µM B(a)P only, 48 h)?
The GST activity was 35.7 ± 7.8%.

And the “level of Nrf2” value (Nrf2; B(a)P only, G-Rg3r experiment)?
Its value is 51.3 ± 6.8%.

And the “level of Nrf2” value (Nrf2; B(a)P only, G-Rg3s experiment)?
The value was 41 ± 9.8%.

Which “body weight loss or clinical signs of toxicity” value [4] does the source give for `CC(C)=CCC[C@](C)(O)[C@H]1CC[C@]2(C)[C@@H]1[C@H](O)C[C@@H]1[C@@]3(C)CC[C@H](O[C@@H]4O[C@H](CO)[C@@H](O)[C@H](O)[C@H]4O[C@@H]4O[C@H](CO)[C@@H](O)[C@H](O)[C@H]4O)C(C)(C)[C@@H]3CC[C@]12C` [G-Rg3, ginsenoside Rg3] here?
The value was “No significant body weight loss or clinical signs of toxicity”.

Which results are given for `CC(C)=CCCC(C)(O)C1CCC2(C)C1C(O)CC1C3(C)CCC(OC4OC(CO)C(O)C(O)C4OC4OC(CO)C(O)C(O)C4O)C(C)(C)C3CCC12C` (stereo not shown) [G-Rg3r, ginsenoside Rg3]?
tumor load [5]: 0.75 ± 0.29 mm^3; concentration at 20 weeks ([6]; intestine, oral, with verapamil coadministered (dose not stated), read-out: level in the intestine): 1350 ± 130 ng/g; concentration at 20 weeks ([6]; intestine, oral, read-out: level in the intestine): 530 ± 80 ng/g; concentration at 20 weeks ([6]; plasma, oral, with verapamil coadministered (dose not stated), read-out: plasma level): 1170 ± 470 nM; concentration at 20 weeks ([6]; plasma, oral, read-out: plasma level): 440 ± 320 nM; Pa-b (apical to basolateral) (Caco-2 monolayer; 10 µM G-Rg3, 50 µmol/L verapamil): 0.73 ± 0.06; Pa-b (apical to basolateral) (Caco-2 monolayer; 10 µM G-Rg3, 100 µmol/L verapamil): 1.14 ± 0.09; Pa-b (apical to basolateral) (Caco-2 monolayer; 10 µM G-Rg3, no verapamil): 0.38 ± 0.06; Pb-a compared with Pa-b (Caco-2 monolayer): significantly higher; average Pb-a after verapamil treatment (Caco-2 monolayer; [9]): significant decrease; cytotoxicity on hEL cells (hEL cells): nontoxic; BPDE-DNA adduct level [7]: 1.87 ± 0.33; BPDE-DNA adducts ([7]; control siRNA group): 1.47 ± 0.21; BPDE-DNA adducts ([7]; siNrf2 group): 3.0 ± 0.21; GST expression (GST [2]; [10]): 103.7 ± 15.5%; GST activity (GST [3]; [11]): 96.3 ± 6.6%; level of Nrf2 (Nrf2; B(a)P-G-Rg3 cotreatment): 106 ± 9.5%

Which results are given for `CC(C)=CCCC(C)(O)C1CCC2(C)C1C(O)CC1C3(C)CCC(OC4OC(CO)C(O)C(O)C4OC4OC(CO)C(O)C(O)C4O)C(C)(C)C3CCC12C` (stereo not shown) [G-Rg3s, ginsenoside Rg3]?
tumor load [5]: 0.81 ± 0.30 mm^3; plasma and intestine levels when verapamil was coadministered, in words ([6]; after 20-weeks treatment): followed a similar pattern; Pb-a compared with Pa-b (Caco-2 monolayer): significantly higher; average Pb-a after verapamil treatment (Caco-2 monolayer; [9]): significant decrease; transport (Pa-b) after verapamil treatment, in words (Caco-2 monolayer; [9]): followed a similar pattern; cytotoxicity on hEL cells (hEL cells): nontoxic; BPDE-DNA adduct level [7]: 1.93 ± 0.48; BPDE-DNA adducts ([7]; control siRNA group): 1.8 ± 0.32; BPDE-DNA adducts ([7]; siNrf2 group): 3.6 ± 0.45; GST expression (GST [2]; [10]): 110 ± 11.1%; GST activity (GST [3]; [11]): 92.3 ± 6.5%; level of Nrf2 (Nrf2; B(a)P-G-Rg3 cotreatment): 117 ± 6.2%

Which “intracellular levels spiked by a factor of” value (Caco-2 cells) does the source give for `CC(C)=CCC[C@](C)(O[C@@H]1O[C@H](CO)[C@@H](O)[C@H](O)[C@H]1O)[C@H]1CC[C@]2(C)[C@@H]1[C@H](O)C[C@@H]1[C@@]3(C)CC[C@H](O)C(C)(C)[C@@H]3CC[C@]12C` [Compound K] here?
The value was 40.

For `CC(C)=CC/C=C(\C)[C@H]1CC[C@]2(C)[C@@H]1[C@H](O)C[C@@H]1[C@@]3(C)CC[C@H](O[C@@H]4O[C@H](CO)[C@@H](O)[C@H](O)[C@H]4O[C@@H]4O[C@H](CO)[C@@H](O)[C@H](O)[C@H]4O)C(C)(C)[C@@H]3CC[C@]12C` [Rg5], which “ginsenoside in the blood” value ([6]; after 20-weeks KRGB treatment, oral) is on record?
Its value is 0.0063 ± 0.0005 µg/mL.

With `CC(C)=CCC[C@](C)(O[C@@H]1O[C@H](CO)[C@@H](O)[C@H](O)[C@H]1O)[C@H]1CC[C@]2(C)[C@@H]1[C@H](O)C[C@@H]1[C@@]3(C)CC[C@H](O)C(C)(C)[C@@H]3[C@@H](O[C@@H]3O[C@H](CO)[C@@H](O)[C@H](O)[C@H]3O)C[C@]12C` [Rg1] as the compound, how does the “levels in rat pulmonary epithelial cells” value [8] read?
The value was “increased”.
